In ChEMBL document CHEMBL6120944, “SAR Analysis of Novel Coxsackie virus A9 Capsid Binders” (J Med Chem, 2024):
In brackets after ≈: the same amount, converted by molar mass. Activity calls are given as the source filed them. The calls are words filed in the database; no cut-off is given here.

Key:
Coxsackievirus A9 [1] = assay: Antiviral activity against Coxsackievirus A9 infected in human A549 cells assessed as inhibition of virus-induced cytopathic effect pre-infected with virus for 1 hr followed by compound addition and measured after 24 hrs by crystal violet staining based analysis; format: functional, organism-based; details: Enterovirus B
[2] = Cytotoxicity against human A549 cells assessed as cell viability; format: toxicity, cell-based
[3] = Selectivity index, ratio of CC50 for cytotoxicity against human A549 cells assessed as cell viability to EC50 for antiviral activity against Coxsackievirus A9 infected in human A549 cells assessed as inhibition of virus-induced cytopathic effect; format: toxicity, cell-based; details: read-out: Ratio CC50/EC50
Coxsackievirus A9 [4] = assay: Antiviral activity against Coxsackievirus A9 infected in human A549 cells assessed as increase in cell viability at 10 uM pre-infected with virus for 1 hr followed by compound addition and measured after 24 hrs by crystal violet staining based analysis; format: functional, organism-based
Coxsackievirus A9 [5] = assay: Antiviral activity against Coxsackievirus A9 infected in human A549 cells assessed as increase in cell viability at 100 uM pre-infected with virus for 1 hr followed by compound addition and measured after 24 hrs by crystal violet staining based analysis relative to control; format: functional
[6] = Kinetic solubility of compound by HPLC analysis; format: physicochemical; details: read-out: Kinetic_solubility
[7] = Distribution coefficient, log D of the compound by HPLC analysis; format: physicochemical; details: octanol/water
Coxsackievirus A9 [8] = assay: Antiviral activity against Coxsackievirus A9 infected in human A549 cells assessed as inhibition of virus-induced cytopathic effect at 5 uM pre-infected with virus for 1 hr followed by compound addition and measured after 24 hrs by crystal violet staining based analysis relative to control; format: functional; set-up: scale not given: the % may be the effect or the level left
Coxsackievirus A9 [9] = assay: Antiviral activity against Coxsackievirus A9 infected in human A549 cells assessed as increase in cell viability at 5 uM pre-infected with virus for 1 hr followed by compound addition and measured after 24 hrs by crystal violet staining based analysis relative to control; format: functional
[10] = Metabolic stability in CD-1 mouse liver microsome assessed as intrinsic clearance preincubated with compound for 10 mins followed by NADP addition and measured after 60 mins by LC-MS/MS analysis; format: ADME; details: liver microsomes, time 70 min, read-out: CLH
[11] = Metabolic stability in CD-1 mouse liver microsome assessed as half life preincubated with compound for 10 mins followed by NADP addition and measured after 60 mins by LC-MS/MS analysis; format: ADME; details: liver microsomes, time 70 min
[12] = Metabolic stability in human liver microsome assessed as intrinsic clearance preincubated with compound for 10 mins followed by NADP addition and measured after 60 mins by LC-MS/MS analysis; format: ADME; details: liver microsomes, time 70 min, read-out: CLH
[13] = Metabolic stability in human liver microsome assessed as half life preincubated with compound for 10 mins followed by NADP addition and measured after 60 mins by LC-MS/MS analysis; format: ADME; details: liver microsomes, time 70 min

EC50 (Coxsackievirus A9 [1]) [µM] | solubility kinetic [6] [µg/mL] | logD [7] | microsomal CLint [10] [µL/min/mg] | half-life [11] [min] | microsomal CLint [12] [µL/min/mg] | half-life [13] [min] | SMILES | CC50 [2] [µM] | selectivity ratio [3] | Activity (Coxsackievirus A9 [4]) | Activity (Coxsackievirus A9 [5]) [%] | Activity (Coxsackievirus A9 [8]) [%] | Activity (Coxsackievirus A9 [9]) [%]
5.84 | 220 (≈ 702 µM) | 1.93 |  |  |  |  | CN1CCN(Cc2ccc(NCc3cccc(F)c3)cc2)CC1 | 222 | 38 | Active | ~70 |  | 
1.07 | 260 (≈ 674 µM) |  |  |  |  |  | CN1CCN(Cc2ccc(NC(=O)c3ccc(-c4ccccc4)cc3)cc2)CC1 | 144 | 134 |  |  |  | 
1.27 | 220 (≈ 667 µM) | 2.34 | 199 | 7 | 66.4 | 20.9 | CN1CCN(Cc2ccc(NCc3ccc(Cl)cc3)cc2)CC1 | 114 | 90.1 | Active |  | 100 | 90
7.98 | 220 (≈ 640 µM) | 2.27 |  |  |  |  | CN1CCN(Cc2ccc(NC(=O)c3ccc(Cl)cc3)cc2)CC1 | > 1000 | > 125 |  |  |  | 
6.8 | 240 (≈ 724 µM) | 1.9 |  |  |  |  | CN1CCN(Cc2ccc(NCc3ccc(F)cc3F)cc2)CC1 | 201 | 29.5 | Active | ~70 |  | 
7.84 |  |  |  |  |  |  | COc1ccccc1CNc1ccc(CN2CCN(C)CC2)cc1 | 360 | 45.9 | Active | 40 |  | 
6.66 | 260 (≈ 830 µM) | 2.05 |  |  |  |  | CN1CCN(Cc2ccc(NCc3ccccc3F)cc2)CC1 | 351 | 52.8 | Active | ~70 |  | 
10.5 | 210 (≈ 645 µM) | 1.81 |  |  |  |  | COc1ccc(CNc2ccc(CN3CCN(C)CC3)cc2)cc1 | 376 | 36 | Active | 60 |  | 
1.06 | 210 (≈ 578 µM) |  | 108 | 12.8 | 41.2 | 33.7 | CN1CCN(Cc2ccc(NCc3ccc(C(F)(F)F)cc3)cc2)CC1 | 78.6 | 74.1 | Active | ~60 |  | 
0.64 | 210 (≈ 565 µM) |  |  |  |  |  | CN1CCN(Cc2ccc(NCc3ccc(-c4ccccc4)cc3)cc2)CC1 | 15.8 | 24.7 | Active |  | 100 | 60
2.34 | 200 (≈ 638 µM) | 1.94 |  |  |  |  | CN1CCN(Cc2ccc(NCc3ccc(F)cc3)cc2)CC1 | 364 | 155 | Active | ~70 |  | 
4.11 | 220 (≈ 664 µM) | 1.98 |  |  |  |  | CN1CCN(Cc2ccc(NCc3ccc(F)c(F)c3)cc2)CC1 | 215 | 52.2 | Active | ~70 |  | 
